Laboratory results published in patent US8101601B2, “Aminoacyl prodrug derivatives and medicaments for the treatment of thromboembolitic disorders” (Bayer Pharma Aktiengesellschaft, priority 2007, dated 2012).
In brackets after ≈: the same amount, converted by molar mass. Counter-ions that a name gives are not always drawn.

Columns and labels:
[1] = Stability in buffer at various pH values (HPLC, 37° C., 24 h); type: physicochemical
Experimental: 0.3 mg of the test substance is weighed into a 2 ml HPLC vial and 0.5 ml of acetonitrile is added. The substance is dissolved by putting the sample vessel in an ultrasonic bath for about 10 seconds. Then 0.5 ml of the respective buffer solution is added, and the sample is again treated in the ultrasonic bath.
• pH 4.0:1 liter of Millipore water is adjusted to pH 4.0 with 1 N hydrochloric acid; • pH 7.4: 90 g of sodium chloride, 13.61 g of potassium dihydrogen phosphate and 83.35 g of 1 M sodium hydroxide solution are made up to 1 liter with Millipore water and then diluted 1:10.
5 μl portions of the test solution are analysed by HPLC for their content of unchanged test substance every hour over a period of 24 hours at 37° C. The percentage areas of the appropriate peaks are used for quantification.
Agilent 1100 with DAD (G1314A), binary pump (G1312A), autosampler (G1329A), column oven (G1316A), thermostat (G1330A); column: Kromasil 100 C18, 125 mm×4.6 mm, 5 μm; column temperature: 30° C.; eluent A: water+5 ml of perchloric acid/liter, eluent B: acetonitrile.
The ratios of the peak areas (F) at the respective time points in relation to the peak areas at the starting time are shown in Table 2 for representative exemplary embodiments: […]

[2] = Determination of the solubility (suspension shaken 24 h at room temperature, HPLC); type: physicochemical; conditions: dilute hydrochloric acid (pH 4), room temperature, 24 h; for solubility at 24 h: pH 4, aqueous buffer, thermodynamic from solid
Experimental: […] This suspension is shaken at room temperature for 24 h. After ultracentrifugation at 224 000 g for 30 min, the supernatant is diluted with DMSO and analysed by HPLC. A two-point calibration plot of the test compound in DMSO is used for quantification.
Agilent 1100 with DAD (G1315A), quat. pump (G1311A), autosampler CTC HTS PAL, degasser (G1322A) and column thermostat (G1316A); column: Zorbax Extend-C18 3.5μ; temperature: 40° C.; eluent A: water+5 ml of perchloric acid/liter, eluent B: acetonitrile; flow rate: 0.7 ml/min; gradient: 0-0.5 min 98% A, 2% B; ramp 0.5-4.5 min 10% A, 90% B; 4.5-6 min 10% A, 90% B; ramp 6.5-6.7 min 98% A, 2% B; 6.7-7.5 min 98% A, 2% B.

[3] = buffer pH 4, 37° C., hydrobromide

SMILES	% test substance after 4 h [F(t = 4 h) × 100/F(t = 0 h)] ([1]; buffer pH 7.4, 37° C., hydrochloride) [%]	Solubility ([2]; hydrochloride) [µg/mL]	% test substance after 4 h [F(t = 4 h) × 100/F(t = 0 h)] ([1]; buffer pH 4, 37° C.) [%]	% Test substance after 24 h [F(t = 24 h) × 100/F(t = 0 h)] ([1]; buffer pH 4, 37° C.) [%]	% test substance after 4 h [F(t = 4 h) × 100/F(t = 0 h)] ([1]; buffer pH 7.4, 37° C.) [%]	% Test substance after 24 h [F(t = 24 h) × 100/F(t = 0 h)] ([1]; buffer pH 7.4, 37° C.) [%]	solubility at 24 h [2] [µg/mL]	% test substance after 4 h [F(t = 4 h) × 100/F(t = 0 h)] ([1]; buffer pH 7.4, 37° C., hydrobromide) [%]	% test substance after 4 h [F(t = 4 h) × 100/F(t = 0 h)] [1, 3] [%]	% Test substance after 24 h [F(t = 24 h) × 100/F(t = 0 h)] [1, 3] [%]
CC(C)[C@H](N)C(=O)SCC(=O)N(C[C@H]1CN(c2ccc(N3CCOCC3=O)cc2)C(=O)O1)C(=O)c1ccc(Cl)s1 [Example 11, S-{2-[[(5-Chloro-2-thienyl)carbonyl]({(5S)-2-oxo-3-[4-(3-oxomorpholin-4-yl)phenyl]-1,3-oxazolidin-5-yl}methyl)amino]-2-oxoethyl}(2S)-2-amino-3-methylbutanethioate hydrochloride]	10	960	–	–	–	–	–	–	–	–
N[C@@H](Cc1c[nH]cn1)C(=O)OCC(=O)N(C[C@H]1CN(c2ccc(N3CCOCC3=O)cc2)C(=O)O1)C(=O)c1ccc(Cl)s1 [Example 8, 2-[[(5-Chloro-2-thienyl)carbonyl]({(5S)-2-oxo-3-[4-(3-oxomorpholin-4-yl)phenyl]-1,3-oxazolidin-5-yl}methyl)amino]-2-oxoethyl L-histidinate dihydrochloride]	–	–	99	81	2	0	–	–	–	–
CC(C)[C@H](N)C(=O)OCC(=O)N(C[C@H]1CN(c2ccc(N3CCOCC3=O)cc2)C(=O)O1)C(=O)c1ccc(Cl)s1 [Example 3, 2-[[(5-Chloro-2-thienyl)carbonyl]({(5S)-2-oxo-3-[4-(3-oxomorpholin-4-yl)phenyl]-1,3-oxazolidin-5-yl}methyl)amino]-2-oxoethyl L-valinate hydrochloride]	–	–	100	99	88	48	340	–	–	–
O=C(OCC(=O)N(C[C@H]1CN(c2ccc(N3CCOCC3=O)cc2)C(=O)O1)C(=O)c1ccc(Cl)s1)[C@@H]1CCCN1 [Example 4, 2-[[(5-Chloro-2-thienyl)carbonyl] ({(5S)-2-oxo-3-[4-(3-oxomorpholin-4-yl)phenyl]-1,3-oxazolidin-5-yl}methyl)amino]-2-oxoethyl L-prolinate hydrochloride]	–	–	100	100	31	0	480	–	–	–
CC(C)[C@H](N)C(=O)SCC(=O)N(C[C@H]1CN(c2ccc(N3CCOCC3=O)cc2)C(=O)O1)C(=O)c1ccc(Cl)s1 [Example 10, S-{2-[[(5-Chloro-2-thienyl)carbonyl]({(5S)-2-oxo-3-[4-(3-oxomorpholin-4-yl)phenyl]-1,3-oxazolidin-5-yl}methyl)amino]-2-oxoethyl}(2S)-2-amino-3-methylbutanethioate hydrobromide]	–	–	100	99	–	0	680	8	–	–
NCCCC[C@H](N)C(=O)OCC(=O)N(C[C@H]1CN(c2ccc(N3CCOCC3=O)cc2)C(=O)O1)C(=O)c1ccc(Cl)s1 [Example 7, 2-[[(5-Chloro-2-thienyl)carbonyl]({(5S)-2-oxo-3-[4-(3-oxomorpholin-4-yl)phenyl]-1,3-oxazolidin-5-yl}methyl)amino]-2-oxoethyl L-lysinate dihydrochloride]	–	–	100	99	48	3	340	–	–	–
O=C(NC[C@H]1CN(c2ccc(N3CCOCC3=O)cc2)C(=O)O1)c1ccc(Cl)s1 [compound (A), 5-Chloro-N-({(5S)-2-oxo-3-[4-(3-oxomorpholin-4-yl)phenyl]-1,3-oxazolidin-5-yl}methyl)thiophene-2-carboxamide, reference compound]	–	–	–	–	–	–	8.1 (≈ 18.6 µM)	–	–	–

Now from value to compound:

% test substance after 4 h [F(t = 4 h) × 100/F(t = 0 h)] ([1]; buffer pH 7.4, 37° C., hydrochloride) [%]	Solubility ([2]; hydrochloride) [µg/mL]	% test substance after 4 h [F(t = 4 h) × 100/F(t = 0 h)] ([1]; buffer pH 4, 37° C.) [%]	% Test substance after 24 h [F(t = 24 h) × 100/F(t = 0 h)] ([1]; buffer pH 4, 37° C.) [%]	% test substance after 4 h [F(t = 4 h) × 100/F(t = 0 h)] ([1]; buffer pH 7.4, 37° C.) [%]	% Test substance after 24 h [F(t = 24 h) × 100/F(t = 0 h)] ([1]; buffer pH 7.4, 37° C.) [%]	solubility at 24 h [2] [µg/mL]	% test substance after 4 h [F(t = 4 h) × 100/F(t = 0 h)] ([1]; buffer pH 7.4, 37° C., hydrobromide) [%]	% test substance after 4 h [F(t = 4 h) × 100/F(t = 0 h)] [1, 3] [%]	% Test substance after 24 h [F(t = 24 h) × 100/F(t = 0 h)] [1, 3] [%]	SMILES
–	–	100	99	49	3	320	–	–	–	NCC(=O)OCC(=O)N(C[C@H]1CN(c2ccc(N3CCOCC3=O)cc2)C(=O)O1)C(=O)c1ccc(Cl)s1 [Example 1, 2-[[(5-Chloro-2-thienyl)carbonyl]({(5S)-2-oxo-3-[4-(3-oxomorpholin-4-yl)phenyl]-1,3-oxazolidin-5-yl}methyl)amino]-2-oxoethyl glycinate hydrochloride]
–	–	100	100	96	80	> 500	–	–	–	CC(C)(N)C(=O)OCC(=O)N(C[C@H]1CN(c2ccc(N3CCOCC3=O)cc2)C(=O)O1)C(=O)c1ccc(Cl)s1 [Example 2, 2-[[(5-Chloro-2-thienyl)carbonyl]({(5S)-2-oxo-3-[4-(3-oxomorpholin-4-yl)phenyl]-1,3-oxazolidin-5-yl}methyl)amino]-2-oxoethyl-2-methylalaninate hydrochloride]
–	–	100	99	–	–	–	–	–	–	CNCCCCCC(=O)N(C[C@H]1CN(c2ccc(N3CCOCC3=O)cc2)C(=O)O1)C(=O)c1ccc(Cl)s1 [Example 18, 5-Chloro-N-[6-(methylamino)hexanoyl]-N-({(5S)-2-oxo-3-[4-(3-oxomorpholin-4-yl)phenyl]-1,3-oxazolidin-5-yl}methyl)thiophene-2-carboxamide hydrochloride]
–	–	100	94	68	14	330	–	–	–	CNCC(=O)OCC(=O)N(C[C@H]1CN(c2ccc(N3CCOCC3=O)cc2)C(=O)O1)C(=O)c1ccc(Cl)s1 [Example 5, 2-[[(5-Chloro-2-thienyl)carbonyl]({(5S)-2-oxo-3-[4-(3-oxomorpholin-4-yl)phenyl]-1,3-oxazolidin-5-yl}methyl)amino]-2-oxoethyl N-methylglycinate hydrochloride]
–	–	100	97	0	0	–	–	–	–	NCCCC(=O)N(C[C@H]1CN(c2ccc(N3CCOCC3=O)cc2)C(=O)O1)C(=O)c1ccc(Cl)s1 [Example 19, N-(4-Aminobutanoyl)-5-chloro-N-({(5S)-2-oxo-3-[4-(3-oxomorpholin-4-yl)phenyl]-1,3-oxazolidin-5-yl}methyl)thiophene-2-carboxamide hydrochloride]
–	–	–	–	0	0	350	–	100	98	CNCCCC(=O)N(C[C@H]1CN(c2ccc(N3CCOCC3=O)cc2)C(=O)O1)C(=O)c1ccc(Cl)s1 [Example 12, 5-Chloro-N-[4-(methylamino)butanoyl]-N-({(5S)-2-oxo-3-[4-(3-oxomorpholin-4-yl)phenyl]-1,3-oxazolidin-5-yl}methyl)thiophene-2-carboxamide hydrobromide]
–	–	–	–	0	0	–	–	57	0	CNCCCCC(=O)N(C[C@H]1CN(c2ccc(N3CCOCC3=O)cc2)C(=O)O1)C(=O)c1ccc(Cl)s1 [Example 14, 5-Chloro-N-[5-(methylamino)pentanoyl]-N-({(5S)-2-oxo-3-[4-(3-oxomorpholin-4-yl)phenyl]-1,3-oxazolidin-5-yl}methyl)thiophene-2-carboxamide hydrobromide]
